# Key:
# [1] = system: ischemia-induced ST segment elevation; test: Ischemia-induced ST segment elevation in anesthetized rabbits; assay type: in vivo, rabbit; conditions: iv infusion, 0.9 uM concentration
# Procedure: This study was undertaken to determine the anti-ischemic effects of compounds of the present disclosure in an in vivo rabbit model.
# Female New Zealand rabbits (3.0-4.0 kg) were purchased from Western Oregon Rabbitry. Animals were housed on a 12-h light and dark cycle and received standard laboratory chow and water. All experiments were performed in accordance with the Guide for the Care and Use of Laboratory Animals published by The National Research Council and with the experimental protocol approved by the Institutional Animal Care Committee of Gilead Sciences, Inc.
# Rabbits were anesthetized with ketamine (35 mg/kg) and xylazine (5 mg/kg) intramuscular injection (im). A tracheotomy was performed and the trachea was intubated with an endotracheal tube. […]
# Reference electrodes were placed in the open incision of the neck. The body temperature of the animal was monitored via a rectal thermometer and maintained at 37-40° C. by adjusting the surface temperature of the surgical table. […] The ischemic area was visualized by perfusing the heart with 1% Evans blue in saline and calculated as a percentage of total ventricular weight. […]
# [2] = system: hNaV1.3 (SCN3A); test: Voltage-dependent inhibition of the NaV1.3 sodium channel; assay type: cell-based, human; conditions: voltage-dependent block at 1 uM
# Procedure: HEK-293 cells stably expressing wild-type (WT) hNaV1.3 (SCN3A NCBI # NP_001075, SCN1B NCBI # NM_001037.4, SCN2B NCBI # NM_004588.2) were used to record INa. Cells are maintained with standard tissue culture procedures and stable channel expression is maintained with 800 ug/mL G418 and 3 ug/mL Puromycin in the culture medium. Unless otherwise noted, all reagents are purchased from Sigma-Aldrich (St Louis, Mo., U.S.A.).
# Assays measuring Voltage-Dependent Block (VDB) of NaV1.3 are performed on an automated electrophysiology platform, QPatch 16X or QPatch HT (Sophion Bioscience, Copenhagen, Denmark), using the whole cell patch clamp technique to measure currents through the cell membrane. Series resistance compensation is set to 100% and series resistance and whole-cell compensation are performed automatically. Currents stored in the Sophion Bioscience Oracle database (Sophion Bioscience, Copenhagen, Denmark). Analysis is performed using QPatch Assay software and data are compiled in Excel 2010 (Microsoft, Seattle, Wash., U.S.A.).
# The internal (pipette) solution consists of (in mM) 105 CsF, 10 NaF, 20 CsCl, 2 EGTA, 10 HEPES, 10 Dextrose with a pH of 7.35 and osmolarity of 300 mOsmol/kg. The external (bath) solution contains in (mM): 80 NaCl, 60 Choline-Cl, 4 KCl, 1.8 CaCl2, 1 MgCl2, 10 dextrose, 10 HEPES, with a pH of 7.35 and osmolarity of 310 mOsmol/kg. Experiments are carried out at 23-25° C.
# Compound stocks are routinely made by the Gilead Sample Bank in vials to 10 mM in dimethyl sulfoxide (DMSO). In some cases, when compounds are not soluble in DMSO, they are made in 100% ethanol. […] Cells are allowed to stabilize for 10 min after establishment of the whole-cell configuration before current is measured. […]
# Voltage-dependent block of NaV1.3 peak current was measured during a voltage step to 0 mV (20 ms) following a voltage step pre-conditioning steps (−55 mV for 10 sec followed by −120 mV for 10 ms). […] The voltage protocol for VDB was performed every 45 seconds in the absence and presence of compound and percentage inhibition was calculated with respect to the compound free condition.
compound,measurement,setting,value
"COc1cc(OC(F)(F)F)ccc1-c1ccc2c(c1)CN(Cc1ncccn1)C(=O)O2 [Example 1, 6-(2-methoxy-4-(trifluoromethoxy)phenyl)-3-(pyrimidin-2-ylmethyl)-3,4-dihydro-2H-benzo[e][1,3]oxazin-2-one]",inhibition in the rabbit ST segment elevation assay,[1],58%
"O=C1Oc2ccc(-c3ccc(OC(F)(F)F)cc3F)cc2CN1Cc1ncccn1 [Example 7, 6-(2-fluoro-4-(trifluoromethoxy)phenyl)-3-(pyrimidin-2-ylmethyl)-3,4-dihydro-2H-benzo[e][1,3]oxazin-2-one]",NaV1.3 VDB % inhibition at 1 uM,[2],32%
"Cc1cc(-c2ccc3c(c2)CN(Cc2ncccn2)C(=O)O3)ccc1OC(F)(F)F [Example 5, 6-(3-methyl-4-(trifluoromethoxy)phenyl)-3-(pyrimidin-2-ylmethyl)-3,4-dihydro-2H-benzo[e][1,3]oxazin-2-one]",NaV1.3 VDB % inhibition at 1 uM,[2],31%
"Cc1cc(OC(F)(F)F)ccc1-c1ccc2c(c1)CN(Cc1ncccn1)C(=O)O2 [Example 8, 6-(2-methyl-4-(trifluoromethoxy)phenyl)-3-(pyrimidin-2-ylmethyl)-3,4-dihydro-2H-benzo[e][1,3]oxazin-2-one]",NaV1.3 VDB % inhibition at 1 uM,[2],13.8%

# — patent US9416128B2, “Fused heterocyclic compounds as ion channel modulators” (Gilead Sciences, Inc., priority 2013, dated 2016)
